Source: publication PMC4603705, “A bioinspired peptide scaffold with high antibiotic activity and low in vivo toxicity” (Scientific Reports, 2015)
Converted amounts (≈) assume the structure as drawn. Bridge positions count the residues as written; N and C are the ends. Square brackets hold non-standard residues; d marks the D form. Peptide text beside a SMILES is read from it. * marks the point of attachment. Lauroyl = CCCCCCCCCCCC(=O)*; Nonanoyl = CCCCCCCCC(=O)*; Nle = CCCC[C@H](N)C(=O)O; Dab = NCC[C@H](N)C(=O)O

Columns and labels:
[1] = system: P. aeruginosa ATTC 9027; assay type: cell-based, Pseudomonas aeruginosa; conditions: ATTC 9027
Method: (§1) MICs were measured after 18–20 h of incubation in sterile 96-well plates (Corning Costar 3598 microtiter plates) in Mueller Hinton Broth (MHB) culture medium, (Difco, USA), according to well known in vitro protocols. Bacterial strains in Table 1 were: P. aeruginosa ATTC 9027, E. coli ATTC 8739, S. aureus ATTC 6538, and E. faecalis ATTC 29212. MICs shown in table 4 were performed by Mary Conrad at Cubist Pharmaceuticals (Lexington, MA) in non-binding surface plates.

[2] = system: E. coli ATTC 8739; assay type: cell-based, Escherichia coli; conditions: ATTC 8739
Method: as §1

[3] = system: human dermic fibroblasts (hDF); test: In vitro cytotoxicity (WST-1 cell viability), hDF; assay type: cell-based; conditions: for IC50 hDF Exp1: Supplementary Table S2, experiment 1; for IC50 hDF Exp2: Supplementary Table S2, experiment 2; for IC50 hDF: cytotoxicity, WST-1
Method: (§2) Cell viability assays were performed using the tetrazolium dye WST1 (similar to MTT) on human dermal fibroblasts (3T3 hDF), MDCK (renal model, Madin-Darby canine kidney cells) and PC12 (NGF treated; neuronal model) cell lines and followed standard protocols. Briefly, cells were seeded into 96-well plates, after incubation for 24 h, the medium was replaced with fresh cell culture medium containing the products (range 0-1.2 mg/mL). Negative and positive controls consisted of plates in the absence of the test compound and plates with sodium dodecyl sulfate (0.02% w/v), respectively. Cell viability was assayed with the tetrazolium salt (4-[3-(4- iodophenyl)-2-(4-nitrophenyl)-2H-5-tetrazolio]-1,3-benzene disulfonate) (WST-1). The relative WST-1 absorbance was recorded at 450 nm.
(§3) The products at concentrations ranging from 0 to 1.2 mg/mL were tested (triplicate) and in two independent experiments. The statistical analysis of the data was performed by using non-linear regression (curve-fit) and the model used agreed with the four parameter logistic model (4PL), also called the Hill-Slope model (sigmoid model), with the following equation: […]
(§4) where y is the percent activity and x is the corresponding concentration. The quantities determined where the point estimate IC50 (Half maximal (50%) inhibitory concentration (IC) of a substance, see Table II), the corresponding 95% confidence interval and R^2 (measures the goodness of fit) are shown in the Supplementary Table S2.

[4] = system: Madine-Darby canine kidney cells (MDCK, renal model); test: In vitro cytotoxicity (WST-1 cell viability), MDCK; assay type: cell-based; conditions: for IC50 MDCK Exp1: Supplementary Table S2, experiment 1; for IC50 MDCK Exp2: Supplementary Table S2, experiment 2; for IC50 MDCK: cytotoxicity, WST-1
Method: as §2, §3, §4

[5] = system: PC12 (treated with NGF, neuronal model); test: In vitro cytotoxicity (WST-1 cell viability), PC12; assay type: cell-based; conditions: WST-1, NGF treated
Method: as §2, §3, §4

[6] = system: S. aureus ATTC 6538; test: microbe, parasite or virus in culture; assay type: cell-based, Staphylococcus aureus; conditions: ATTC 6538
Method: as §1

[7] = system: S. aureus; test: microbe, parasite or virus in culture; assay type: cell-based, Staphylococcus aureus
Method: as §1

[8] = system: E. faecalis ATTC 29212; test: microbe, parasite or virus in culture; assay type: cell-based, Enterococcus faecalis; conditions: ATTC 29212
Method: Lipopeptide 39 was chosen for this, as it is known that long fatty acids tend to favor activity against Gram-positive bacteria in polymyxin analogs. […] In summary, new broad-spectrum antimicrobial lipopeptides were achieved.
as §1

[9] = system: E. coli
Method: (§5) Strains of E. coli and P. aeruginosa with resistance to quinolones and carbapenems as well as multi-drug-resistant bacteria were tested.
as §1

[10] = system: P. aeruginosa
Method: as §5, §1

[11] = resistant to nalidixic acid, cotrimoxazole and ampicillin

Row | SMILES | MIC P. aeruginosa [1] | MIC E. coli [2] | IC50 hDF Exp1 [3] | IC50 hDF Exp2 [3] | IC50 hDF [3] | IC50 MDCK Exp1 [4] | IC50 MDCK Exp2 [4] | IC50 MDCK [4] | IC50 PC12 [5] | MIC S. aureus [6] | MIC S. aureus DR, MR SAU.1616 [7] | MIC S. aureus DR, MS SAU.278 [7] | MIC S. aureus MR ATTC 43300 [7] | MIC S. aureus MR SAU.1118 [7] | MIC S. aureus MS ATTC 29213 [7] | MIC E. faecalis Wild type ATTC 29212 [8] | other results
1 | CCCCCCCCCCCC(=O)N[C@@H](CCN)C(=O)N[C@H](C(=O)N[C@@H](CCN)C(=O)N[C@H]1CSSC[C@H](C(N)=O)NC(=O)[C@H](CCN)NC(=O)[C@H](CCN)NC(=O)[C@H](CCCC)NC(=O)[C@@H](Cc2ccccc2)NC(=O)[C@H](CCN)NC1=O)[C@@H](C)O [Analog 39, dodecanoyl-Dab-Thr-Dab-Cys-Dab-Phe-Nle-Dab-Dab-Cys] (Lauroyl-[Dab]T[Dab]C[Dab][dF][Nle][Dab][Dab][dC]-NH2; disulfide 4-10) | 1 µg/mL (≈ 0.79 µM) | 4 µg/mL (≈ 3.16 µM) | – | – | – | – | – | – | – | – | 8 µg/mL (≈ 6.32 µM) | 2 µg/mL (≈ 1.58 µM) | 1 µg/mL (≈ 0.79 µM) | 1 µg/mL (≈ 0.79 µM) | 1 µg/mL (≈ 0.79 µM) | 2 to 4 µg/mL | MIC E. coli NDM-1 ([9]; highly-resistant, New Delhi metallo-beta-lactamase gene): 0.5 µg/mL (≈ 0.395 µM); MIC E. coli VAL 5 ([9]; resistant to nalidixic acid): 0.5 µg/mL (≈ 0.395 µM); MIC E. coli MAC 21a [9, 11]: 1 µg/mL (≈ 0.79 µM); MIC E. coli VAL 10 [9, 11]: 0.5 µg/mL (≈ 0.395 µM); MIC P. aeruginosa 38a [10]: 1 µg/mL (≈ 0.79 µM); MIC P. aeruginosa 40b [10]: 2 µg/mL (≈ 1.58 µM)
2 | CCCCCCCCCC(=O)N[C@@H](Cc1c[nH]c2ccccc12)C(=O)N[C@H](CC(N)=O)C(=O)N[C@@H](CC(=O)O)C(=O)N[C@@H]1C(=O)NCC(=O)N[C@@H](CCCN)C(=O)N[C@@H](CC(=O)O)C(=O)N[C@H](C)C(=O)N[C@@H](CC(=O)O)C(=O)NCC(=O)N[C@H](CO)C(=O)N[C@@H]([C@H](C)CC(=O)O)C(=O)N[C@@H](CC(=O)c2ccccc2N)C(=O)O[C@@H]1C [Daptomycin] | – | – | – | – | – | – | – | – | – | 1 µg/mL (≈ 0.617 µM) | 16 µg/mL (≈ 9.87 µM) | 8 µg/mL (≈ 4.94 µM) | 0.5 µg/mL (≈ 0.309 µM) | 0.5 µg/mL (≈ 0.309 µM) | 0.5 µg/mL (≈ 0.309 µM) | 2 to 4 µg/mL | –

The next lines start with results.

Row | MIC P. aeruginosa [1] | MIC E. coli [2] | SMILES | IC50 hDF Exp1 [3] | IC50 hDF Exp2 [3] | IC50 hDF [3] | IC50 MDCK Exp1 [4] | IC50 MDCK Exp2 [4] | IC50 MDCK [4] | IC50 PC12 [5] | MIC S. aureus [6] | MIC S. aureus DR, MR SAU.1616 [7] | MIC S. aureus DR, MS SAU.278 [7] | MIC S. aureus MR ATTC 43300 [7] | MIC S. aureus MR SAU.1118 [7] | MIC S. aureus MS ATTC 29213 [7] | MIC E. faecalis Wild type ATTC 29212 [8] | other results
3 | 16 µg/mL (≈ 12 µM) | 8 µg/mL (≈ 5.99 µM) | CCCCCCCCC(=O)N[C@@H](CCCNC(=N)N)C(=O)N[C@H](C(=O)N[C@@H](CCN)C(=O)N[C@H]1CSSC[C@@H](C(N)=O)NC(=O)[C@H](CCN)NC(=O)[C@H](CCCNC(=N)N)NC(=O)[C@H](CC(C)C)NC(=O)[C@@H](Cc2ccccc2)NC(=O)[C@H](CCN)NC1=O)[C@@H](C)O [Analog 5, nonanoyl-Arg-Thr-Dab-Cys-Dab-Phe-Leu-Arg-Dab-Cys] (Nonanoyl-RT[Dab]C[Dab][dF]LR[Dab]C-NH2; disulfide 4-10) | 555 µg/mL (≈ 416 µM) | 513 µg/mL (≈ 384 µM) | 534 µg/mL (≈ 400 µM) | 541 µg/mL (≈ 405 µM) | 554 µg/mL (≈ 415 µM) | 548 µg/mL (≈ 410 µM) | 629 µg/mL (≈ 471 µM) | – | – | – | – | – | – | – | –
4 | 8 µg/mL (≈ 5.75 µM) | 4 µg/mL (≈ 2.87 µM) | CCCCCCCCC(=O)N[C@@H](CCCNC(=N)N)C(=O)N[C@H](C(=O)N[C@@H](CCCNC(=N)N)C(=O)N[C@H]1CSSC[C@@H](C(N)=O)NC(=O)[C@H](CCN)NC(=O)[C@H](CCCNC(=N)N)NC(=O)[C@H](CC(C)C)NC(=O)[C@@H](Cc2ccccc2)NC(=O)[C@H](CCN)NC1=O)[C@@H](C)O [Analog 8, nonanoyl-Arg-Thr-Arg-Cys-Dab-Phe-Leu-Arg-Dab-Cys] (Nonanoyl-RTRC[Dab][dF]LR[Dab]C-NH2; disulfide 4-10) | 421 µg/mL (≈ 302 µM) | 502 µg/mL (≈ 361 µM) | 461 µg/mL (≈ 331 µM) | 417 µg/mL (≈ 299 µM) | 528 µg/mL (≈ 379 µM) | 472 µg/mL (≈ 339 µM) | 595 µg/mL (≈ 428 µM) | – | – | – | – | – | – | – | –
5 | 16 to 32 µg/mL | 8 to 16 µg/mL | CCCCCCCCC(=O)N[C@@H](CCCNC(=N)N)C(=O)N[C@H](C(=O)N[C@@H](CCCNC(=N)N)C(=O)N[C@H]1CSSC[C@@H](C(N)=O)NC(=O)[C@H](CCCNC(=N)N)NC(=O)[C@H](CCCNC(=N)N)NC(=O)[C@H](CC(C)C)NC(=O)[C@@H](Cc2ccccc2)NC(=O)[C@H](CCCNC(=N)N)NC1=O)[C@@H](C)O [Analog 12] (Nonanoyl-RTRCR[dF]LRRC-NH2; disulfide 4-10) | 147 µg/mL (≈ 97.7 µM) | 181 µg/mL (≈ 120 µM) | 164 µg/mL (≈ 109 µM) | 233 µg/mL (≈ 155 µM) | 147 µg/mL (≈ 97.7 µM) | 190 µg/mL (≈ 126 µM) | 225 µg/mL (≈ 150 µM) | 8 µg/mL (≈ 5.32 µM) | – | – | – | – | – | – | –
